Legend:
Fusarium culmorum [1] = experiment: whole plant or invertebrate; type: in vivo, Fusarium culmorum on wheat spikelets cv. Monsun; details: in Triticum aestivum, read-out: control of Fusarium culmorum
[2] = test system: Magnaporthe grisea (Pyricularia oryzae); experiment: microbe, parasite or virus in culture; type: cell-based; details: read-out: control of Magnaporthe grisea
[3] = test system: Magnaporthe grisea (Pyricularia oryzae); experiment: whole plant or invertebrate; type: in vivo, Magnaporthe grisea on rice leaf segments cv. Ballila; details: foliar, read-out: control of Magnaporthe grisea
Sclerotinia sclerotiorum = Sclerotinia sclerotiorum / liquid culture (cottony rot); type: cell-based; details: growth inhibition photometrically 3-4 days after application, vs untreated control
Procedure: Sclerotinia sclerotiorum/Liquid Culture (Cottony Rot)
(§1) Mycelia fragments of a newly grown liquid culture of the fungus are directly mixed into nutrient broth (Vogels broth). After placing a (DMSO) solution of test compound into a microtiter plate (96-well format) the nutrient broth containing the fungal material is added. The test plates are incubated at 24° C. and the inhibition of growth is determined photometrically 3-4 days after application.

[4] = test system: Botryotinia fuckeliana (Botrytis cinerea); experiment: Botryotinia fuckeliana (Botrytis cinerea) / liquid culture (gray mould); type: cell-based; details: growth inhibition photometrically 3-4 days after application, vs untreated control
Procedure: Botryotinia fuckeliana (Botrytis cinerea)/Liquid Culture (Gray Mould)
as §1, with “Conidia” for “Mycelia fragments of a newly grown liquid culture”, “fungus from cryogenic storage” for “fungus”, “format),” for “format)”, “spores” for “material”

Fusarium culmorum [5] = experiment: microbe, parasite or virus in culture; type: cell-based; details: read-out: control of Fusarium culmorum
[6] = test system: Glomerella lagenarium (Colletotrichum lagenarium); experiment: Glomerella lagenarium (Colletotrichum lagenarium) / liquid culture (anthracnose); type: cell-based; details: Colletotrichum orbiculare, growth inhibition photometrically 3-4 days after application, vs untreated control
Procedure: (§2) Conidia of the fungus from cryogenic storage are directly mixed into nutrient broth (PDB potato dextrose broth). After placing a (DMSO) solution of test compound into a microtiter plate (96-well format), the nutrient broth containing the fungal spores is added. The test plates are incubated at 24° C. and the inhibition of growth is measured photometrically 3-4 days after application.

[7] = test system: Monographella nivalis (Microdochium nivale); experiment: Monographella nivalis (Microdochium nivale) / liquid culture (foot rot cereals); type: cell-based; details: growth inhibition photometrically 4-5 days after application, vs untreated control
Procedure: Monographella nivalis (Microdochium nivale)/Liquid Culture (Foot Rot Cereals)
as §2, with “determined” for “measured”, “4-5” for “3-4”

In the case of C=C(C)C[C@@](C)(Cc1ccccc1)C(=O)Nc1cnc2c(F)cccc2c1 [Compound F-21, (2S)-2-benzyl-N-(8-fluoro-3-quinolyl)-2,4-dimethyl-pent-4-enamide], the pest or weed control at 200 ppm (Fusarium culmorum [1]) is reported as no less than 80%, the inhibition of growth at 200 ppm [2] is reported as no less than 80% and the pest or weed control at 200 ppm [3] is reported as no less than 80%. It also gave an inhibition of growth at 20 ppm (Sclerotinia sclerotiorum) of no less than 80%.

For C=C(Cl)C[C@H](Cc1ccccc1)C(=O)Nc1cc2cccc(F)c2nc1C [Compound F-26, (2S)-2-benzyl-4-chloro-N-(8-fluoro-2-methyl-3-quinolyl)pent-4-enamide], the inhibition of growth at 200 ppm [4] was no less than 80%, the inhibition of growth at 200 ppm (Fusarium culmorum [5]) was no less than 80% and the pest or weed control at 200 ppm (Fusarium culmorum [1]) was no less than 80%. The inhibition of growth at 200 ppm [6] was no less than 80%, the inhibition of growth at 200 ppm [2] was no less than 80% and the pest or weed control at 200 ppm [3] was no less than 80%. The inhibition of growth at 20 ppm (Sclerotinia sclerotiorum) was no less than 80%.

Compound Cc1nc2c(F)cccc2cc1NC(=O)[C@](C)(Cc1cccc(F)c1)CC(C)C [Compound F-29, (2S)-N-(8-fluoro-2-methyl-3-quinolyl)-2-[(3-fluorophenyl)methyl]-2,4-dimethyl-pentanamide] has an inhibition of growth at 200 ppm [4] of no less than 80%, an inhibition of growth at 200 ppm [6] of no less than 80% and an inhibition of growth at 200 ppm [7] of no less than 80%. The inhibition of growth at 200 ppm [2] was no less than 80%, the pest or weed control at 200 ppm [3] was no less than 80% and the inhibition of growth at 20 ppm (Sclerotinia sclerotiorum) was no less than 80%.

Work on C#CCC(C)(Cc1ccccc1)C(=O)Nc1cc2cccc(F)c2nc1C (stereo not drawn) [Compound E-2, 2-benzyl-N-(8-fluoro-2-methyl-3-quinolyl)-2-methyl-pent-4-ynamide] yielded a pest or weed control at 200 ppm (Fusarium culmorum [1]) of no less than 80%, an inhibition of growth at 200 ppm [2] of no less than 80% and a pest or weed control at 200 ppm [3] of no less than 80%.

For Cc1c(NC(=O)C(C)(Cc2ccccc2)CC(C)C)cnc2c(F)cccc12 (stereo not drawn) [Compound E-84, 2-benzyl-N-(8-fluoro-4-methyl-3-quinolyl)-2,4-dimethyl-pentanamide], the pest or weed control at 200 ppm (Fusarium culmorum [1]) was no less than 80%, the inhibition of growth at 200 ppm [2] was no less than 80% and the inhibition of growth at 20 ppm (Sclerotinia sclerotiorum) was no less than 80%. For the same compound, the melting point was 73 to 79 °C.

Work on Cc1c(NC(=O)[C@@](C)(Cc2ccccc2)CC(C)C)cnc2c(F)cccc12 [Compound F-4, (2R)-2-benzyl-N-(8-fluoro-4-methyl-3-quinolyl)-2,4-dimethyl-pentanamide] yielded a pest or weed control at 200 ppm (Fusarium culmorum [1]) of no less than 80%, an inhibition of growth at 200 ppm [2] of no less than 80% and a pest or weed control at 200 ppm [3] of no less than 80%. The inhibition of growth at 20 ppm (Sclerotinia sclerotiorum) was no less than 80%.

For C=CCC(C)(Cc1ccccc1)C(=O)Nc1cnc2c(F)cccc2c1 (stereo not drawn) [Compound E-78, 2-benzyl-N-(8-fluoro-3-quinolyl)-2-methyl-pent-4-enamide], the pest or weed control at 200 ppm (Fusarium culmorum [1]) was no less than 80%, the inhibition of growth at 200 ppm [2] was no less than 80% and the melting point was 146 to 149 °C.

Cc1nc2c(F)cccc2cc1NC(=O)[C@H](Cc1ccccc1)CC(C)(C)C [Compound F-33, (2S)-2-benzyl-N-(8-fluoro-2-methyl-3-quinolyl)-4,4-dimethyl-pentanamide] gave an inhibition of growth at 200 ppm [4] of no less than 80%, an inhibition of growth at 200 ppm (Fusarium culmorum [5]) of no less than 80% and an inhibition of growth at 200 ppm [6] of no less than 80%. The inhibition of growth at 200 ppm [2] was no less than 80%.

Work on Cc1nc2c(F)cccc2cc1NC(=O)[C@H](Cc1ccccc1)CC1(C)CC1 [Compound F-37, (2S)-2-benzyl-N-(8-fluoro-2-methyl-3-quinolyl)-3-(1-methylcyclopropyl)propanamide] yielded an inhibition of growth at 200 ppm [4] of no less than 80%, an inhibition of growth at 200 ppm (Fusarium culmorum [5]) of no less than 80% and a pest or weed control at 200 ppm (Fusarium culmorum [1]) of no less than 80%. The inhibition of growth at 200 ppm [6] was no less than 80% and the inhibition of growth at 200 ppm [2] was no less than 80%.

For CC(C)(C)CC(Cc1ccccc1)C(=O)Nc1cnc2c(F)cccc2c1 (stereo not drawn) [Compound E-98, 2-benzyl-N-(8-fluoro-3-quinolyl)-4,4-dimethyl-pentanamide], the inhibition of growth at 200 ppm [4] was no less than 80%, the inhibition of growth at 200 ppm (Fusarium culmorum [5]) was no less than 80% and the inhibition of growth at 200 ppm [6] was no less than 80%. The inhibition of growth at 200 ppm [2] was no less than 80% and the pest or weed control at 200 ppm [3] was no less than 80%.

Cc1c(NC(=O)[C@H](Cc2ccccc2)CC2(C)CC2)cnc2c(F)cccc12 [Compound F-39, (2S)-2-benzyl-N-(8-fluoro-4-methyl-3-quinolyl)-3-(1-methylcyclopropyl)propanamide] showed an inhibition of growth at 200 ppm [4] of no less than 80%, an inhibition of growth at 200 ppm (Fusarium culmorum [5]) of no less than 80% and an inhibition of growth at 200 ppm [6] of no less than 80%. For the same compound, the inhibition of growth at 200 ppm [2] was no less than 80%.

With C=C(Cl)C[C@@](C)(Cc1ccccc1)C(=O)Nc1cc2cccc(F)c2nc1C [Compound F-43, (2R)-2-benzyl-4-chloro-N-(8-fluoro-2-methyl-3-quinolyl)-2-methyl-pent-4-enamide] the inhibition of growth at 200 ppm [4] was no less than 80%, the pest or weed control at 200 ppm (Fusarium culmorum [1]) was no less than 80% and the inhibition of growth at 200 ppm [6] was no less than 80%. For the same compound, the pest or weed control at 200 ppm [3] was no less than 80%.

In the case of Cc1nc2c(F)cccc2cc1NC(=O)[C@@](C)(Cc1cccc(F)c1)CC(F)(F)F [Compound F-31, (2S)-4,4,4-trifluoro-N-(8-fluoro-2-methyl-3-quinolyl)-2-[(3-fluorophenyl)methyl]-2-methyl-butanamide], the inhibition of growth at 200 ppm [4] is reported as no less than 80%, the pest or weed control at 200 ppm (Fusarium culmorum [1]) is reported as no less than 80% and the inhibition of growth at 200 ppm [6] is reported as no less than 80%. The pest or weed control at 200 ppm [3] was no less than 80% and the inhibition of growth at 20 ppm (Sclerotinia sclerotiorum) was no less than 80%.

For CC(C)C[C@@](C)(Cc1ccccc1)C(=O)Nc1cnc2c(F)cccc2c1 [Compound F-20, (2S)-2-benzyl-N-(8-fluoro-3-quinolyl)-2,4-dimethyl-pentanamide], the pest or weed control at 200 ppm (Fusarium culmorum [1]) was no less than 80%, the inhibition of growth at 200 ppm [2] was no less than 80% and the inhibition of growth at 20 ppm (Sclerotinia sclerotiorum) was no less than 80%.

With C=C(Cl)CC(Cc1ccccc1)C(=O)Nc1cnc2c(F)cccc2c1C (stereo not drawn) [Compound E-5, 2-benzyl-4-chloro-N-(8-fluoro-4-methyl-3-quinolyl)pent-4-enamide] the pest or weed control at 200 ppm (Fusarium culmorum [1]) was no less than 80%, the inhibition of growth at 200 ppm [2] was no less than 80% and the inhibition of growth at 20 ppm (Sclerotinia sclerotiorum) was no less than 80%. It also gave a melting point of 53 to 58 °C.

Compound Cc1nc2c(F)cccc2cc1NC(=O)[C@](C)(Cc1cccc(F)c1)CC(F)(F)F [Compound F-32, (2R)-4,4,4-trifluoro-N-(8-fluoro-2-methyl-3-quinolyl)-2-[(3-fluorophenyl)methyl]-2-methyl-butanamide] has an inhibition of growth at 200 ppm [4] of no less than 80%, an inhibition of growth at 200 ppm (Fusarium culmorum [5]) of no less than 80% and a pest or weed control at 200 ppm (Fusarium culmorum [1]) of no less than 80%. The inhibition of growth at 200 ppm [6] was no less than 80%, the inhibition of growth at 200 ppm [2] was no less than 80% and the pest or weed control at 200 ppm [3] was no less than 80%. For the same compound, the inhibition of growth at 20 ppm (Sclerotinia sclerotiorum) was no less than 80%.

C=C(Cl)C[C@](C)(Cc1ccccc1)C(=O)Nc1cnc2c(F)cccc2c1C [Compound F-41, (2S)-2-benzyl-4-chloro-N-(8-fluoro-4-methyl-3-quinolyl)-2-methyl-pent-4-enamide] showed an inhibition of growth at 200 ppm [4] of no less than 80%, a pest or weed control at 200 ppm (Fusarium culmorum [1]) of no less than 80% and an inhibition of growth at 200 ppm [6] of no less than 80%. For the same compound, the inhibition of growth at 200 ppm [7] was no less than 80%, the pest or weed control at 200 ppm [3] was no less than 80% and the inhibition of growth at 20 ppm (Sclerotinia sclerotiorum) was no less than 80%.

Work on Cc1nc2c(F)cccc2cc1NC(=O)[C@@](C)(Cc1cccc(F)c1)CC(C)C [Compound F-30, (2R)-N-(8-fluoro-2-methyl-3-quinolyl)-2-[(3-fluorophenyl)methyl]-2,4-dimethyl-pentanamide] yielded an inhibition of growth at 200 ppm [4] of no less than 80%, an inhibition of growth at 200 ppm [6] of no less than 80% and an inhibition of growth at 200 ppm [7] of no less than 80%. For the same compound, the inhibition of growth at 200 ppm [2] was no less than 80%, the pest or weed control at 200 ppm [3] was no less than 80% and the inhibition of growth at 20 ppm (Sclerotinia sclerotiorum) was no less than 80%.

Work on Cc1nc2c(F)cccc2cc1NC(=O)C(C)(Cc1ccccc1)CC1(C)CC1 (stereo not drawn) [Compound E-99, 2-benzyl-N-(8-fluoro-2-methyl-3-quinolyl)-2-methyl-3-(1-methylcyclopropyl)propanamide] yielded an inhibition of growth at 200 ppm [4] of no less than 80%, an inhibition of growth at 200 ppm (Fusarium culmorum [5]) of no less than 80% and a pest or weed control at 200 ppm (Fusarium culmorum [1]) of no less than 80%. For the same compound, the inhibition of growth at 200 ppm [6] was no less than 80%, the inhibition of growth at 200 ppm [2] was no less than 80% and the pest or weed control at 200 ppm [3] was no less than 80%. For the same compound, the melting point was 151 to 152 °C.

With Cc1nc2c(F)cccc2cc1NC(=O)C(C)(Cc1ccccc1)CC(C)C (stereo not drawn) [Compound E-86, 2-benzyl-N-(8-fluoro-2-methyl-3-quinolyl)-2,4-dimethyl-pentanamide] the pest or weed control at 200 ppm (Fusarium culmorum [1]) was no less than 80%, the inhibition of growth at 200 ppm [2] was no less than 80% and the inhibition of growth at 20 ppm (Sclerotinia sclerotiorum) was no less than 80%.

Cc1c(NC(=O)C(C)(Cc2ccccc2)CC2(C)CC2)cnc2c(F)cccc12 (stereo not drawn) [Compound E-100, 2-benzyl-N-(8-fluoro-4-methyl-3-quinolyl)-2-methyl-3-(1-methylcyclopropyl)propanamide] gave an inhibition of growth at 200 ppm [4] of no less than 80%, an inhibition of growth at 200 ppm (Fusarium culmorum [5]) of no less than 80% and a pest or weed control at 200 ppm (Fusarium culmorum [1]) of no less than 80%. The inhibition of growth at 200 ppm [6] was no less than 80%, the inhibition of growth at 200 ppm [2] was no less than 80% and the pest or weed control at 200 ppm [3] was no less than 80%. It also gave an inhibition of growth at 20 ppm (Sclerotinia sclerotiorum) of no less than 80% and a melting point of 163 to 164 °C.

With C=C(Cl)CC(Cc1ccccc1)C(=O)Nc1cnc2c(F)cccc2c1 (stereo not drawn) [Compound E-6, 2-benzyl-4-chloro-N-(8-fluoro-3-quinolyl)-pent-4-enamide] the inhibition of growth at 200 ppm [2] was no less than 80%, the pest or weed control at 200 ppm [3] was no less than 80% and the melting point was 166 to 168 °C.
